The values that follow come from patent publication US6140091A, “Anti-idiotype vaccines to elicit catalytic antibodies” (Boston Biomedical Research Institute, priority 1998, dated 2000).

Experiment [1] has as its system mouse myeloma catalytic antibody MOPC 167 (IgA). The experiment in a line: MOPC 167 catalyzed acetylthiocholine hydrolysis (esterase activity, Ellman's reagent). It is filed as biochemical. To be noted: acetylthiocholine as substrate; analog concentration not given. From the text: It was recognized that the phosphocholine moiety might serve as a transition state analog for ester hydrolysis according to the scheme shown in FIG. 5. MOPC 167 was therefore tested for esterase activity using acetylthiocholine as a substrate and Ellman's reagent (E-ss-E) for the detection of thiol production (Izadyar et al., Proceedings of the National Academy of Sciences of the United States of America 90: 8876-80 (1993)).
Analysis of the Lineweaver-Burk plot for MOPC 167 catalyzed acetylthiocholine hydrolysis (FIG. 7) gave a Michaelis constant, km =627 μM and catalytic constant, kcat =0.25 min^-1 which were close to the values measured for carbonate ester hydrolysis (Pollack et al., Science 234: 1570-1573 (1986)). However, since spontaneous hydrolysis of this substrate is low, kuncat =4×10^-5 min^-1, the kcat /kuncat =6,000 is about 10-fold greater than that recorded for MOPC 167 catalysis of the carbonate ester reaction. That rate enhancement should be increased by using idiotypic mimicry.
(In general: Ellman's reagent forms a yellow product with free thiols.)

In experiment [2] the test system is MOPC 167 catalytic antibody (binding of anti-idiotype antibody 1F1). The experiment is described as follows: Competitive ELISA using the free transition state analog: binding of anti-Id 1F1 to MOPC 167. Further details: species or system mouse. To be noted: 10 mM TS analog present. The protocol: (§1) The first competitive ELISA uses the MOPC 167 catalytic antibody adsorbed onto microtitre plate wells. This assay measures the blocking effect of the p-nitrophenylphosphorylcholine transition state analog on the binding of anti-idiotype antibodies to MOPC 167 (FIG. 2, A versus B).
(§2) A true combining site-reactive anti-idiotype antibody will be prevented from interacting with MOPC 167 if this assay is performed in the presence of an excess of the transition state analog because that analog will preoccupy the catalytic combining site (FIG. 2, B). Since the anti-idiotype is blocked from attaching to MOPC 167 and will subsequently wash away, a reduced signal is obtained after the peroxidase-labeled, γ-specific anti-mouse IgG reagent and its substrate are added (compare FIG. 2, A, unblocked control and B, transition state analog blockade).
(§3) Binding of 4G4 and 1F1 to MOPC 167 was inhibited by 67% and 70% respectively when 10 mM p-nitrophenylphosphorylcholine TS analog was present.
(In general: In an ELISA, binding on a coated surface is turned into a signal by an enzyme label.)

Experiment [3] deals with mouse myeloma catalytic antibody MOPC 167 (IgA). The settings on record: from Pollack et al., Science 234: 1570-1573 (1986); cited from earlier work.
For experiment [4], the system named is MOPC 167 catalytic antibody (binding of anti-idiotype antibody 4G4). The experiment in a line: Competitive ELISA using the free transition state analog: binding of anti-Id 4G4 to MOPC 167. Further details: species or system mouse. The settings on record: 10 mM TS analog present. The protocol:
as §1, §2, §3

On to `C[N+](C)(C)CCOP(=O)([O-])Oc1ccc([N+](=O)[O-])cc1` [p-nitrophenylphosphorylcholine], for which the “blockage of esterase activity by the non-cleavable transition state analog” value in experiment [1] is “almost completely blocked”. In addition, in experiment [2], the “inhibition of binding of 1F1 to MOPC 167” value amounted to 70%. The “affinity Ka” value in experiment [3] is ~ 10^6 M^-1. The “inhibition of binding of 4G4 to MOPC 167” value in experiment [4] came to 67%.
